Data reported in patent publication US6245817A, “NPY5 receptor antagonists and methods for using same” (Bayer Corporation, priority 1999, dated 2001).

How the values were obtained:
Human NPY1 Receptor = target: T1, Human NPY1 Receptor (Homo sapiens, UniProt P25929); assay: Human NPY1 Receptor Binding Assay; conditions: SK-N-MC cells, [125I]PYY; read-out: hNPY1 IC50
T1 sequence (P25929 1-384): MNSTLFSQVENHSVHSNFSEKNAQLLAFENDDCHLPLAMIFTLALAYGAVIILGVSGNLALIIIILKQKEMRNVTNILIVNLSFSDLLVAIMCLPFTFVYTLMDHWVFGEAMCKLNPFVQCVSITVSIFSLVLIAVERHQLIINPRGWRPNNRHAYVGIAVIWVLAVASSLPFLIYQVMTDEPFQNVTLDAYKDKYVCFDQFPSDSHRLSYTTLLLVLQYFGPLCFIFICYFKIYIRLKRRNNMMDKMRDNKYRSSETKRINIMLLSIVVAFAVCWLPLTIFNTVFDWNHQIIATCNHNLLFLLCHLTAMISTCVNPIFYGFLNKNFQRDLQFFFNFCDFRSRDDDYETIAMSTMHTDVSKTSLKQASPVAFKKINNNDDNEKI

Human NPY2 receptor = target: T2, Human NPY2 receptor (Homo sapiens, UniProt P49146); assay: Human NPY2 Receptor Binding Assay; conditions: [125I]PYY; read-out: hPPY2 IC50
T2 sequence (P49146 1-381): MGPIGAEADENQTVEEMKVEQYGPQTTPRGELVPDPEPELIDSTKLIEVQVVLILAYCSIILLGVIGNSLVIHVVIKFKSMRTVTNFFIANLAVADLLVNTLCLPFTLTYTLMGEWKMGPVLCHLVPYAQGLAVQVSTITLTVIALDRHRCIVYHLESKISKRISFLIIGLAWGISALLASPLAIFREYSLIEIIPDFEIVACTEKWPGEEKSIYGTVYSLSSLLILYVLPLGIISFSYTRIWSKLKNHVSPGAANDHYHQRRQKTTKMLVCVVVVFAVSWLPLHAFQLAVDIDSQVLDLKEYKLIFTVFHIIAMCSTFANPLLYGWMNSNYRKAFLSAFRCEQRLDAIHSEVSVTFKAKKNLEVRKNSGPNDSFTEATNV
Method: Binding assays were performed on GF/C Millipore 96-well plates pretreated with 0.02% polyethylenimine. The binding buffer for rat Y2 binding is Krebs-Ringer bicarbonate (pH 7.4) containing 0.01% BSA and 0.005% bacitracin. Samples consist of membrane protein, 25 pM [125I]PYY and drug dilution. Nonspecific binding is defined by 1 μpM NPY.
After a 2 hour incubation at room temperature with constant mixing, the samples are aspirated on a vacuum manifold, and rinsed with ice-cold binding buffer. The amount of radioactivity in each well is quantitated with either gamma counting or liquid scintillation.

Human NPY4/PP1 receptor = Human NPY4/PP1 receptor (Homo sapiens, UniProt P50391); assay: Human NPY4/PP1 Receptor Binding Assay; conditions: [125I]human PP; read-out: hNPY4 IC50
Human NPY5 Receptor = target: T3, Human NPY5 Receptor (Homo sapiens, UniProt Q15761); assay: Human NPY5 Receptor Binding Assay; conditions: [125I]PYY; read-out: hNPY5 IC50
T3 sequence (Q15761 1-445): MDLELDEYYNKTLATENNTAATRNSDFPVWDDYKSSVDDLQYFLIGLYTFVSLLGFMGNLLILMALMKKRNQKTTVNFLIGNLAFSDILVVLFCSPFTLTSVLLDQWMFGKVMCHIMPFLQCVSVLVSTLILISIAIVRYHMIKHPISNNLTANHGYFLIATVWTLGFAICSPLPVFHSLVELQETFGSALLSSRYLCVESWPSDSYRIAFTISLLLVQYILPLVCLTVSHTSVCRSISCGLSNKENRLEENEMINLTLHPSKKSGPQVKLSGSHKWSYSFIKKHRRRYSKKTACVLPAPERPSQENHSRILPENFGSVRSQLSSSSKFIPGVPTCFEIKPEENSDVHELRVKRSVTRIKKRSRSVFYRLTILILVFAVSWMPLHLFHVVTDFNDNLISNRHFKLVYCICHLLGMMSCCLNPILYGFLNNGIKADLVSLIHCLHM
Method: Human and Rat NPY5 Receptor Binding Assays
Binding assays are performed on GF/C Millipore 96-well plates pretreated with 0.02% polyethylenimine. The binding buffer is 25 mM Tris, 120 mM NaCl, 5 mM KCl, 1.2 mM KH2 PO4, 2.5 mM CaCl2, 1.2 mM MgSO4, 0.1% BSA and 0.5 mg/ml bacitracin, pH 7.4. Samples consist of membrane protein, 75-100 pM [125I]PYY (porcine, NEN-DuPont) and drug dilution. Nonspecific binding is defined by 1 μM PYY. After a 2 hour incubation at room temperature with constant mixing, the samples are aspirated on a vacuum manifold, and rinsed with ice-cold binding buffer. The amount of radioactivity in each well is quantitated with either gamma counting or liquid scintillation. IC50 values, which correspond to 50% inhibition of specific binding, are determined with non-linear regression analysis.

Rat NPY5 Receptor = target: T4, Rat NPY5 Receptor (Rattus norvegicus, UniProt Q63634); assay: Rat NPY5 Receptor Binding Assay; conditions: for inhibition at 10 µM: values marked *, read-out: rNPY5 percent inhibition at 10 μM; for IC50: [125I]PYY, read-out: rNPY5 IC50
T4 sequence (Q63634 1-445): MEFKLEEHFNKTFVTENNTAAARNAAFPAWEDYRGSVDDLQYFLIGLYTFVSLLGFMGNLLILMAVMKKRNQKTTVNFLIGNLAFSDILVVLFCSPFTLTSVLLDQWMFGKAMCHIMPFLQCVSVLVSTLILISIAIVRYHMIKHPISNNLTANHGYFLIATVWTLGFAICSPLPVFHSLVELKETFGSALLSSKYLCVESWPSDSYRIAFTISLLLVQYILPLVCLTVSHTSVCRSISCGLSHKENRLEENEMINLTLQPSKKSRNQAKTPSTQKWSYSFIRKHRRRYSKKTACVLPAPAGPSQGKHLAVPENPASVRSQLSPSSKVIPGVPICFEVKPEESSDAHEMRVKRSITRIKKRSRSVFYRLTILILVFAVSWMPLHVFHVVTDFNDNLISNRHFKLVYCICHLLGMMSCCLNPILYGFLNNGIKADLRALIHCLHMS

Human NPY4/PP1 receptor, sequence (P50391 whole entry): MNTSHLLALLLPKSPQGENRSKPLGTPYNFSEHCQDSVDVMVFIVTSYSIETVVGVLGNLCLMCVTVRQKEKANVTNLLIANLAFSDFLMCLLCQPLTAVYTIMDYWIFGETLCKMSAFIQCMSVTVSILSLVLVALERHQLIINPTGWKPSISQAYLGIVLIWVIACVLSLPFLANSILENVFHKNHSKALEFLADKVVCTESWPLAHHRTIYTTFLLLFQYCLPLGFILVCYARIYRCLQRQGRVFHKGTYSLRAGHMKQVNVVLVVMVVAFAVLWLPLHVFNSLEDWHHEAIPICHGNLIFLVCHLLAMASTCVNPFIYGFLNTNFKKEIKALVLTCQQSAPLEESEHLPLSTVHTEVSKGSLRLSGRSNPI

| IC50 (Human NPY1 Receptor) [µM] | IC50 (Human NPY2 receptor) [µM] | IC50 (Human NPY4/PP1 receptor) [µM] | IC50 (Human NPY5 Receptor) [µM] | inhibition at 10 µM (Rat NPY5 Receptor) [%] | IC50 (Rat NPY5 Receptor) [µM] | Structure (SMILES) |
| --- | --- | --- | --- | --- | --- | --- |
| > 5 | > 10 | > 5 | 0.64 | 95 |  | Cn1ccnc1SCC(=O)Nc1ccc(-c2ccccc2)cc1 [Compound 1, N-Biphenyl-4yl-2-(1-methyl-1H-imidazol-2-ylsulfanyl)-acetamide] |
| > 5 | > 5 | > 5 | > 10 |  | > 10 | Cc1cc(-c2nnc(SCC(=O)Nc3ccc(C(F)(F)F)cc3)n2C)no1 [Compound 2, 2-[4-Methyl-5-(5-methyl-isoxazol-3-yl)-4H-[1,2,4]triazol-3-ylsultanyl]-N-(4-trifluoro-methyl-phenyl)-acetamide] |
| > 5 | > 5 | > 5 |  |  | 0.36 | O=C(CSc1ncc[nH]1)Nc1ccc(C(=O)c2ccccc2)cc1 [Compound 4, N-(4-Benzoyl-phenyl)-2-(1H-imidazol-2-ylsultanyl)-acetamide] |
| > 5 | > 5 | > 5 | 0.16 |  | 0.18 | Cc1ccccc1NC(=O)CCC(Oc1ccccc1)C(=O)Nc1ccccc1C (stereo not shown) [Compound 6, 2-Phenoxy-pentanedioic acid bis-o-tolylamide] |
| > 5 | > 5 | > 5 | 1.6 |  | 0.44 | O=C(CCC(Sc1ccccc1)C(=O)Nc1ccccc1)Nc1ccccc1 (stereo not shown) [Compound 7, 2-Phenylsulfanyl-pentanedioic acid bis-phenylamide] |
| > 5 | > 5 | > 5 | > 10 |  | > 10 | Cc1cc(C)n2nc(SCC(=O)Nc3ccc(Cl)cc3)nc2n1 [Compound 137, reference compound] |
| > 5 | > 5 | > 5 | > 10 | 52 |  | Cc1nc(-c2nnc(SCC(=O)Nc3ccc(Cl)cc3)n2C)cs1 [Compound 138, N-(4-Chloro-phenyl)-2-(4-methyl-5-(2-methyl-thiazolo-yl)-4H-[1,2,4]triazol-3-ylsulfanyl]-acetamide, reference compound] |
| > 5 | > 5 | > 5 | > 10 |  | > 10 | Cn1ccnc1SCC(=O)Nc1ccc(Cl)cc1 [Compound 139, N-(4-Chloro-phenyl)-2-(1-methyl-1H-imidazoI-2-ylsulfanyl)-acetamide, reference compound] |
| > 5 | > 5 | > 5 | > 10 | 61 |  | CCn1c(SCC(=O)Nc2ccc(Cl)cc2)nc2ccccc21 [Compound 140, N-(4-Chloro-phenyl)-2-(1-ethyl-1H-berzoimidazol-2-ylsulfanyl)-acetamide, reference compound] |
| > 5 | > 5 | > 5 | 3 |  | 3 | CC(C)c1ccc(NC(=O)CSc2n[nH]c(=O)n2-c2cccc(F)c2)cc1 [Compound 141, reference compound] |
| > 5 | > 5 | > 5 | > 10 |  | > 10 | CSc1ncc(-c2nnc(SCC(=O)Nc3ccc(Cl)cc3)n2C)n1C [Compound 142, N-(4-Chloro-phenyl)-2-(4-methyl-5-(3-methyl-2-methylsulfanyl-3H-imidazol-4-yl)-4H-[1,2,4]triazol-3-ylsulfanyl]-acetamide, reference compound] |
| > 5 | > 5 | > 5 | 3.1 |  | 3.9 | Cn1ccnc1SCC(=O)Nc1ccc(C(C)(C)C)cc1 [Compound 143, N-(4-tert-Butyl-phenyl)-2-(1-methyl-1H-imidazol-2-ylsulfanyl)-acetamide, reference compound] |
| > 5 | > 5 | > 5 | 1.2 |  | 1.4 | Cn1nnnc1SCC(=O)Nc1ccc(OC(F)(F)F)cc1 [Compound 144, 2-(1-Methyl-1H-tetrazol-5-ylsulfanyl)-N-(4-trifluoromethoxy-phenyl)-acetamide, reference compound] |
| > 5 | > 5 | > 5 | > 10 |  | > 10 | Cn1ccnc1SCC(=O)Nc1ccc(I)cc1 [Compound 145, N-(4-Iodo-phenyl)-2-(1-methyl-1H-imidazol-2-ylsulfanyl)-acetamide, reference compound] |
| > 5 | > 5 | > 5 | > 10 |  | > 10 | CN1CCN=C1SCC(=O)Nc1ccc(F)cc1 [Compound 146, N-(4-Fluoro-phenyl)-2-(1-methyl-4,5-dihydro-1H-imidazol-2-ylsulfanyl)-acetamide, reference compound] |
| > 5 | > 5 | > 5 | > 10 |  | > 10 | O=C(CSc1n[nH]c(=O)n1-c1cccc(F)c1)Nc1ccc(Cl)cc1 [Compound 147, reference compound] |
| > 5 |  | > 5 | 0.553 |  | 0.525 | CCC(C)c1ccc(NC(=O)CSc2nnnn2C)cc1 (stereo not shown) [Compound 171, N-(4-sec-Butyl-phenyl)-2-(1-methyl-1H-tetrazol-5-ylsulfanyl)-acetamide, reference compound] |
| > 5 |  | > 5 | 2.3 |  | 2 | CCC(C)c1ccc(NC(=O)CSc2nncn2C)cc1 (stereo not shown) [Compound 172, reference compound] |
| > 5 |  | > 5 | 0.08 |  | 0.073 | Cn1cnnc1SCC(=O)Nc1ccc(C2CCCCC2)cc1 [Compound 173, N-(4-Cyclohexyl-phenyl)-2-(4-methyl-4H-[1,2,4]triazol-3-ylsulfanyl)-acetamide, reference compound] |
| > 5 |  | > 5 | > 10 |  | > 10 | Cc1ccc(NC(=O)CSc2nncn2C)cc1 [Compound 174, 2-(4-Methyl-4H-[1,2,4]triazol-3-ylsulfanyl)-N-p-tolyl-acetamide, reference compound] |
| > 5 | > 5 | > 5 | 7 |  |  | Cn1c(Cn2cc(C(F)(F)F)ccc2=O)nnc1SCC(=O)Nc1ccc(Cl)cc1 [Compound 175, N-(4-Chloro-phenyl)-2-[4-methyl-5-(2-oxo-5-trifluoromethyl-2H-pyridin-1-ylmethyl)-4H-[1,2,4]triazol-3-ylsulfanyl]-acetamide, reference compound] |
| > 5 | > 5 | > 5 | 3 |  |  | CC(C)c1ccc(NC(=O)CSc2nnc(Cn3cc(C(F)(F)F)ccc3=O)n2C)cc1 [Compound 176, N-(4-isopropyl-phenyl)-2-[4-methyl-5-(2-oxo-5-trifluoromethyl-2H-yridin-1-ylmethyl)-4H-[1,2,4]triazol-3-ylsulfanyl]-acetamide, reference compound] |
